T1: SbzB (Streptomyces sp., UniProt P0DY32)
T1 construct: pET28a NdeI/HindIII, His-tagged, E. coli Rosetta2 (DE3), Ni-NTA
T1 sequence (P0DY32 1-532): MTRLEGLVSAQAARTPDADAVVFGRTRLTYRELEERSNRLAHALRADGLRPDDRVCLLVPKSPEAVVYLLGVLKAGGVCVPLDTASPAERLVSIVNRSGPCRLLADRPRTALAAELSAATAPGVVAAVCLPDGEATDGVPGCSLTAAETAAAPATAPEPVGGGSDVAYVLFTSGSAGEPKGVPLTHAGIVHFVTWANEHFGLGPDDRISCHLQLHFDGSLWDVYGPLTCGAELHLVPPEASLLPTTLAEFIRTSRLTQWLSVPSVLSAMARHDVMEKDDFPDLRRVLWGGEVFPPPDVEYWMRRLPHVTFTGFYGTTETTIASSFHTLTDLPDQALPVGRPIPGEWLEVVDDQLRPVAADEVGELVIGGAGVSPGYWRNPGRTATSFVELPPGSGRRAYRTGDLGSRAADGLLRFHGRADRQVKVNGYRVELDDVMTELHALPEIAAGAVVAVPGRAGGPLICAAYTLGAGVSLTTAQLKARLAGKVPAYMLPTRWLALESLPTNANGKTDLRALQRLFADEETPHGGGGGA


Tests used:
SbzB = molecular target: T1, SbzB; test: malachite green adenylation assay with hydroxylamine; chiral HPLC; format: biochemical; conditions: 0.5 mM ATP, 10 mM MgCl2, Tris-HCl pH 7.5, 30 °C
[1] = substrate: N[C@@H](CS)C(=O)O; test: LC-MS quantification of substrate consumption; format: biochemical, Streptomyces sp.; conditions: 50 mM Tris pH 9.0, 30 °C, TCEP, 6 μM SbzM, 2 min, n = 2

Molecule | malachite green adenylation assay with hydroxylamine; chiral HPLC (SbzB) | Km [1]
C[C@H](c1ccccc1)[C@H](N)C(=O)O [(2S, 3R)-β-methylphenylalanine] | SbzB indeed selectively adenylated (2S, 3R)-β-methylphenylalanine as the best substrate | 
SbzM (Streptomyces sp.) (protein, pET28a NdeI/HindIII, His-tagged, E. coli Rosetta2 (DE3), Ni-NTA; tag cleavage not mentioned) MSTQQVIAMLTEELHDLDPAERQAKTVELLAVFGRAKAEALQPEERPEAPDTKPGPLLICDWAADLGLDGTTQQLGIEVAPGPTKVTKTADATGHSLASSGHVGADILHVPAGSGFAPHTHPGDHLLFVLAGTGTIAVAGEIVRTRPGQVYMVQGDITHAVGAVTDHMILSVGAPHRRLDSPDRQELTAYAALLGELGEITCRLCDISAAGGEELAAKGCTHSPHRFG |  | 530 ± 80 µM
